Source: patent publication US7498404B2, “Compositions, methods and uses for a novel family of peptides” (priority 2004, dated 2009)

Tests used:
[1] = biological target: Module 8 A-domain protein (Brevibacillus texasporus, UniProt Q2VQ14); experiment: ATP-PPi exchange assay, Module 8 A-domain; format: biochemical; details: 0.5 mM amino acid, 2 μM protein, 37° C., 15 min
Protocol: (§1) Cloning, overexpression, and purification of His10-tagged BT A-domain proteins. DNA fragments encoding the A-domains of the BT NRPS Modules 8, 5, 7, 4 and 2 (Bt8A, Bt5A, Bt7A, Bt4A and Bt2A) were PCR-amplified and the PCR products were inserted into the His10-tag recombinant protein expression vector pET16b (Novagen). The A-domain borders were determined as defined by (Konz, et al., 1999). The expression constructs were transformed into the E.coli BL21 -AI strain (Invitrogen). Transformants were grown in L-broth at 37° C. to an A600 of 0.6 and then induced with 1 mM IPTG (isopropyl-β-D-thiogalactopyranoside) plus 0.2% L-arabinose. The cells were allowed to grow for two additional hours at 30° C. before being harvested. Purification of the His10-tag recombinant proteins was achieved using the TALON metal affinity resins (BD Biosciences) under conditions recommended in the manual with modifications. Briefly, the E. coli cells were broken by sonication. Cell lysates were cleared by centrifugation at 25,000× g for one hour. […] Eluted proteins were dialyzed against a buffer (50 mM HEPES, pH 8.0, 100 mM sodium chloride, 10 mM magnesium chloride, and 1 mM EDTA) and then analyzed with SDS PAGE plus Coomassie Blue staining. […] Concentrations of the purified proteins were determined by using the calculated molar extinction coefficient for the A280.
(§2) ATP-PPi exchange assay. […] The charcoal/water suspension was added to a scintillation vial containing 5.0 ml of scintillation fluid, and the bound radioactivity was determined by liquid scintillation counting. […]
(§3) Since a purified recombinant A-domain of an NRPS module can selectively and efficiently activate the cognate amino acid substrate of the NRPS module in an ATP-PPi exchange assay (Konz, et al., 1999; Mootz & Marahiel, 1997), ATP-PPi exchange assays have been used to experimentally establish NRPS module specificities and novel NRPS codons. […] A-domain specificities were determined in ATP-PPi exchange and aa Km assays (see Methods and Materials), and the results are shown in FIG. 5. […]

[2] = test system: Module 2 A-domain protein; experiment: ATP-PPi exchange assay, Module 2 A-domain; format: biochemical, Brevibacillus texasporus; details: 0.5 mM amino acid, 37° C., 15 min
Protocol: Cloning, overexpression, and purification of His10-tagged BT A-domain proteins. DNA fragments encoding the A-domains of the BT NRPS Modules 8, 5, 7, 4 and 2 (Bt8A, Bt5A, Bt7A, Bt4A and Bt2A) were PCR-amplified and the PCR products were inserted into the His10-tag recombinant protein expression vector pET16b (Novagen). The A-domain borders were determined as defined by (Konz, et al., 1999). The expression constructs were transformed into the E.coli BL21 -AI strain (Invitrogen). Transformants were grown in L-broth at 37° C. to an A600 of 0.6 and then induced with 1 mM IPTG (isopropyl-β-D-thiogalactopyranoside) plus 0.2% L-arabinose. The cells were allowed to grow for two additional hours at 30° C. before being harvested. Purification of the His10-tag recombinant proteins was achieved using the TALON metal affinity resins (BD Biosciences) under conditions recommended in the manual with modifications. Briefly, the E. coli cells were broken by sonication. Cell lysates were cleared by centrifugation at 25,000× g for one hour. His-tagged recombinant proteins were then incubated with the TALON resin, washed, and eluted with 500 mM imidazole. Eluted proteins were dialyzed against a buffer (50 mM HEPES, pH 8.0, 100 mM sodium chloride, 10 mM magnesium chloride, and 1 mM EDTA) and then analyzed with SDS PAGE plus Coomassie Blue staining. […] Concentrations of the purified proteins were determined by using the calculated molar extinction coefficient for the A280.
ATP-PPi exchange assay. ATP-PPi exchange assays were performed to determine the substrate specificity of an A-domain. ATP-PPi exchanges were assayed as previously described (Stachelhaus, et al., 1998) with minor modifications. The assay mixture contained 50 mM HEPES (pH 8.0), 100 mM NaCl, 10 mM MgCl2, 2 mM ATP, 0.5 mM amino acid, 0.05 mM PPi, 0.15 μCi tetrasodium [^32P]pyrophosphate. Exchange was initiated by addition of purified recombinant A-domain proteins to a total volume of 0.1 ml. The protein concentrations were 0.2 μM for Module 4 and Module 5 A-domains while 2 μM for Module 7 and Module 8 A-domains. After incubation at 37° C. for 15 min, the reaction was stopped by addition of 0.5 ml of Termination Mix (100 mM tetrasodium pyrophosphate, 3.5% HClO4, and 1.6% [w/v] activated charcoal). The charcoal was pelleted by centrifugation, washed first with 40 mM pyrophosphate plus 1.4% perchloric acid and then with water, and was re-suspended in 0.5 ml of water. The charcoal/water suspension was added to a scintillation vial containing 5.0 ml of scintillation fluid, and the bound radioactivity was determined by liquid scintillation counting. The apparent Km values were determined with substrate concentrations ranging from 0.1 to 10 mM.
Since a purified recombinant A-domain of an NRPS module can selectively and efficiently activate the cognate amino acid substrate of the NRPS module in an ATP-PPi exchange assay (Konz, et al., 1999; Mootz & Marahiel, 1997), ATP-PPi exchange assays have been used to experimentally establish NRPS module specificities and novel NRPS codons. Recombinant A-domains of Modules 8, 5, 7 ,4 and 2 of the BT NRPS were produced and purified as described in Methods and Materials. Almost completely soluble recombinant A-domain proteins were obtained. A-domain specificities were determined in ATP-PPi exchange and aa Km assays (see Methods and Materials), and the results are shown in FIG. 5. […]

[3] = biological target: Module 5 A-domain protein (Brevibacillus texasporus, UniProt Q2VQ15); experiment: ATP-PPi exchange assay, Module 5 A-domain; format: biochemical; details: 0.5 mM amino acid, 0.2 μM protein, 37° C., 15 min
Protocol: as §1, §2, §3

[4] = biological target: Module 4 A-domain protein (Brevibacillus texasporus, UniProt Q2VQ15); experiment: ATP-PPi exchange assay, Module 4 A-domain; format: biochemical; details: 0.5 mM amino acid, 0.2 μM protein, 37° C., 15 min
Protocol: as §1, §2, §3

[5] = test system: straight run broilers; experiment: Growth promoting Studies 3-1 and 3-2, pelleted starter feed, batteries; format: in vivo, chicken; details: BT1583 12 ppm, BMD 50 ppm, COB 90 ppm, alone or combined; for 20-day cumulative weight gain, Mean: Table 18; for 21-day cumulative weight gain, estimated marginal Mean: Table 20; for 21-day cumulative weight gain, Duncan homogeneous subsets: Table 21; for 20-day cumulative feed conversion rate, Duncan homogeneous subsets: Table 25
Description: Eight (8) study repetitions per treatment were used, again with 4 birds per pen.

[6] = substrate: CC(C)[C@H](N)C(=O)O; experiment: ATP-PPi exchange assay, Module 8 A-domain; format: biochemical, Brevibacillus texasporus; details: other: substrate 0.1 to 10 mM; pH 8.0
Protocol: as §1, with “harvested.” for “harvested. Purification of the His10-tag recombinant proteins was achieved using the TALON metal affinity resins (BD Biosciences) under conditions recommended in the manual with modifications. Briefly, the E. coli cells were broken by sonication. Cell lysates were cleared by centrifugation at 25,000× g for one hour.”
as §2

[7] = substrate: CC[C@H](C)[C@H](N)C(=O)O; experiment: ATP-PPi exchange assay, Module 4 A-domain; format: biochemical, Brevibacillus texasporus; details: other: substrate 0.1 to 10 mM; pH 8.0
Protocol: as §1, with “harvested.” for “harvested. Purification of the His10-tag recombinant proteins was achieved using the TALON metal affinity resins (BD Biosciences) under conditions recommended in the manual with modifications. Briefly, the E. coli cells were broken by sonication. Cell lysates were cleared by centrifugation at 25,000× g for one hour.”
as §2

[8] = substrate: CC[C@H](C)[C@H](N)C(=O)O; experiment: ATP-PPi exchange assay, Module 5 A-domain; format: biochemical, Brevibacillus texasporus; details: other: substrate 0.1 to 10 mM; pH 8.0
Protocol: as §1, with “harvested.” for “harvested. Purification of the His10-tag recombinant proteins was achieved using the TALON metal affinity resins (BD Biosciences) under conditions recommended in the manual with modifications. Briefly, the E. coli cells were broken by sonication. Cell lysates were cleared by centrifugation at 25,000× g for one hour.”
as §2

[9] = substrate: CC(C)[C@H](N)C(=O)O; experiment: ATP-PPi exchange assay, Module 5 A-domain; format: biochemical, Brevibacillus texasporus; details: other: substrate 0.1 to 10 mM; pH 8.0
Protocol: as §1, with “harvested.” for “harvested. Purification of the His10-tag recombinant proteins was achieved using the TALON metal affinity resins (BD Biosciences) under conditions recommended in the manual with modifications. Briefly, the E. coli cells were broken by sonication. Cell lysates were cleared by centrifugation at 25,000× g for one hour.”
as §2

Row | Molecule | 20-day cumulative weight gain, Mean [5] | 21-day cumulative weight gain, estimated marginal Mean [5] | 21-day cumulative weight gain, Duncan homogeneous subsets [5] | 20-day cumulative feed conversion rate, Duncan homogeneous subsets [5] | further results
1 | CC(C)[C@H](N)C(=O)O [L-Val] |  |  |  |  | relative substrate activation (highest activity defined as 100%) [1]: 100%; relative substrate activation (highest activity defined as 100%) [2]: 67%; relative substrate activation (highest activity defined as 100%) [3]: 100%; relative substrate activation (highest activity defined as 100%) [4]: 9%
2 | CC[C@@]1([C@@H]2O[C@@H]([C@H]3O[C@@](O)(CO)[C@H](C)C[C@@H]3C)C[C@@H]2C)CC[C@H]([C@]2(C)CC[C@]3(C[C@H](O)[C@@H](C)[C@@H]([C@@H](C)[C@@H](OC)[C@H](C)C(=O)O)O3)O2)O1 [Monensin, reference compound] | 792.8438 | 792.844 | 792.8438 | 1.3712 | 
3 | Bacitracin MD [BMD, reference compound] | 832.9688 | 832.969 | 832.9688 | 1.3397 | 
4 | Module 8 A-domain protein (Brevibacillus texasporus) (protein) ALVFGEAQLTYRELNEKANQMARGLRKQGVLPDQVIGLLTDRSLEMIIAILAIFKAGGAYMPIDPSYPSERIQYMLADSRTHLLLVQKAEMIPANYQGEVLLLTEDSWMDENTDNLDLVNQAQDLAYVMYTSGSTGKPKGNLTTHQNIVKTIMNNGYMEITPNDRLLQLSNYAFDGSTFDIYSALLNGASLILVPTHVLMNPTDLASVIQDQHITVSFMTTSLFNTLVELDVTSLKHMRKVVFGGEKASIKHVEKALDYLGAGRLVNGYGPTETTVFATTYTVDHTIKETGIMPIGRPLNNTKVFILGADNQLQPIGALGELCVSGEGLARGYLNLPELTADRFVENPFMRGERMYRTGDLARWLPDGSIEYVGRIDEQVKIRGHRIELGEIEARLLEHPAISETVLLAKQDEQGHSFLCAYLVTNGAWSVAELRKHIKETLPDSMVPSYFIEIDKMPLTSNGKADKRALPEPDVQQVSSY |  |  |  |  | Km [6]: 2750 µM
5 | Module 4 A-domain protein (Brevibacillus texasporus) (protein) QLFEEQVDKNPNQIALVFKEEKLTYGEVNAKANQLAYVLRKQGVQPNDVIGIITERSPEMIIGILAIFKAGGAYMPIDPSYPAERIQYMLQDNQTKLLLVQKQEMIPANYQGEVLFLTQESWMHEETSNPAHITQAQALAYVMYTSGSTGEPKGILTTHQNIMKTVIHNGYVEITPGDCLSQLSNYAFDGSTFEIYGALLHGATLLLVTKEAVLNMNELARLIKKEQVTVSFMTTALFNTLVDLDITCFQSIRKVLFGGELASVKHVLKALDYLGEHRVINVYGPTETTVYATYYSVDHSMLTRASVPIGRPINNTKAYIVNTDGQPQPIGVVGELCIGGEGVACGYLNRPELTKKHFVDNPFVLGERMYCTGDLARFLPDGNIEYIGRMDEQVKIRGHRIELGEIEKVLLQHPAISETVLLAKRDEQGHSYLCAYIVGQVFWTVTELRQHLMESLPEYMVPSYFIEIEKLPLTANGKVDKRALPEPDRKMGSAYV |  |  |  |  | Km [7]: 500 µM
6 | Module 5 A-domain protein (Brevibacillus texasporus) (protein) DKTIHQQFEQKVEENPDQIALLFKDKEITYGQLNAKANQFARVLRKHGVQPDQVVGLITDRSIEMMIGILAILKAGGAYLPIDPSYPLERITYMLEDSQAQLLIVQEAAMIPEGYQGKVLLLAEECWMQEEASNLELINDAQDLAYVMYTSGSTGKPKGNLTTHQNILRTIINNGFIEIVPADRLLQLSNYAFDGSTFDIYSALLNGATLVLVPKEVMLNPMELARIVREQDITVSFMTTSLFHTLVELDVTSMKSIRKVVFGGEKASYKHVEKALDYLGEGRLVNGYGPTETTVFATTYTVDSSIKETGIVPIGRPLNNTSVYILNENNQPQPIGVPGELCVGGAGIARGYLNRPELTAERFVDNPFLVGDRMYRTGDMARFLPDGNIEYIGRMDEQVKIRGHRIELGEIEKSLLEYPAISEAVLVAKRDEQGHSYLCAYVVSTDQWTVAKVRQHILEALPEYMVPSYFVELEKLPLTSNGKVDKRALPEPDRVITNEYV |  |  |  |  | Km [8]: 2780 µM; Km [9]: 1110 µM
